Target: T1, ATM (Homo sapiens, UniProt Q13315)
T1 construct: detecting phosphorylation of Chk2 in a human non-small cell lung cancer cell line NCI-H460 (ATCC company); host or cells: NCI-H460 human non-small cell lung cancer cells
Test: ATM inhibition test (phosphorylation of Chk2 generated by ionizing radiation, AlphaScreen SureFire)
Format: cell-based
Details: phosphorylated Chk2 in NCI-H460 cells, ionizing radiation 8Gy, 1 hour after test compound treatment; read-out: ATM inhibitory activity
How it was run: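 NCI-H460 cells treated with compound for 1 hour, then irradiated with 8Gy and incubated 1 hour at 37° C. Phospho-Chk2 measured by AlphaScreen SureFire. Inhibition ratio calculated relative to untreated irradiated and non-irradiated wells.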

T1 sequence (Q13315 whole entry): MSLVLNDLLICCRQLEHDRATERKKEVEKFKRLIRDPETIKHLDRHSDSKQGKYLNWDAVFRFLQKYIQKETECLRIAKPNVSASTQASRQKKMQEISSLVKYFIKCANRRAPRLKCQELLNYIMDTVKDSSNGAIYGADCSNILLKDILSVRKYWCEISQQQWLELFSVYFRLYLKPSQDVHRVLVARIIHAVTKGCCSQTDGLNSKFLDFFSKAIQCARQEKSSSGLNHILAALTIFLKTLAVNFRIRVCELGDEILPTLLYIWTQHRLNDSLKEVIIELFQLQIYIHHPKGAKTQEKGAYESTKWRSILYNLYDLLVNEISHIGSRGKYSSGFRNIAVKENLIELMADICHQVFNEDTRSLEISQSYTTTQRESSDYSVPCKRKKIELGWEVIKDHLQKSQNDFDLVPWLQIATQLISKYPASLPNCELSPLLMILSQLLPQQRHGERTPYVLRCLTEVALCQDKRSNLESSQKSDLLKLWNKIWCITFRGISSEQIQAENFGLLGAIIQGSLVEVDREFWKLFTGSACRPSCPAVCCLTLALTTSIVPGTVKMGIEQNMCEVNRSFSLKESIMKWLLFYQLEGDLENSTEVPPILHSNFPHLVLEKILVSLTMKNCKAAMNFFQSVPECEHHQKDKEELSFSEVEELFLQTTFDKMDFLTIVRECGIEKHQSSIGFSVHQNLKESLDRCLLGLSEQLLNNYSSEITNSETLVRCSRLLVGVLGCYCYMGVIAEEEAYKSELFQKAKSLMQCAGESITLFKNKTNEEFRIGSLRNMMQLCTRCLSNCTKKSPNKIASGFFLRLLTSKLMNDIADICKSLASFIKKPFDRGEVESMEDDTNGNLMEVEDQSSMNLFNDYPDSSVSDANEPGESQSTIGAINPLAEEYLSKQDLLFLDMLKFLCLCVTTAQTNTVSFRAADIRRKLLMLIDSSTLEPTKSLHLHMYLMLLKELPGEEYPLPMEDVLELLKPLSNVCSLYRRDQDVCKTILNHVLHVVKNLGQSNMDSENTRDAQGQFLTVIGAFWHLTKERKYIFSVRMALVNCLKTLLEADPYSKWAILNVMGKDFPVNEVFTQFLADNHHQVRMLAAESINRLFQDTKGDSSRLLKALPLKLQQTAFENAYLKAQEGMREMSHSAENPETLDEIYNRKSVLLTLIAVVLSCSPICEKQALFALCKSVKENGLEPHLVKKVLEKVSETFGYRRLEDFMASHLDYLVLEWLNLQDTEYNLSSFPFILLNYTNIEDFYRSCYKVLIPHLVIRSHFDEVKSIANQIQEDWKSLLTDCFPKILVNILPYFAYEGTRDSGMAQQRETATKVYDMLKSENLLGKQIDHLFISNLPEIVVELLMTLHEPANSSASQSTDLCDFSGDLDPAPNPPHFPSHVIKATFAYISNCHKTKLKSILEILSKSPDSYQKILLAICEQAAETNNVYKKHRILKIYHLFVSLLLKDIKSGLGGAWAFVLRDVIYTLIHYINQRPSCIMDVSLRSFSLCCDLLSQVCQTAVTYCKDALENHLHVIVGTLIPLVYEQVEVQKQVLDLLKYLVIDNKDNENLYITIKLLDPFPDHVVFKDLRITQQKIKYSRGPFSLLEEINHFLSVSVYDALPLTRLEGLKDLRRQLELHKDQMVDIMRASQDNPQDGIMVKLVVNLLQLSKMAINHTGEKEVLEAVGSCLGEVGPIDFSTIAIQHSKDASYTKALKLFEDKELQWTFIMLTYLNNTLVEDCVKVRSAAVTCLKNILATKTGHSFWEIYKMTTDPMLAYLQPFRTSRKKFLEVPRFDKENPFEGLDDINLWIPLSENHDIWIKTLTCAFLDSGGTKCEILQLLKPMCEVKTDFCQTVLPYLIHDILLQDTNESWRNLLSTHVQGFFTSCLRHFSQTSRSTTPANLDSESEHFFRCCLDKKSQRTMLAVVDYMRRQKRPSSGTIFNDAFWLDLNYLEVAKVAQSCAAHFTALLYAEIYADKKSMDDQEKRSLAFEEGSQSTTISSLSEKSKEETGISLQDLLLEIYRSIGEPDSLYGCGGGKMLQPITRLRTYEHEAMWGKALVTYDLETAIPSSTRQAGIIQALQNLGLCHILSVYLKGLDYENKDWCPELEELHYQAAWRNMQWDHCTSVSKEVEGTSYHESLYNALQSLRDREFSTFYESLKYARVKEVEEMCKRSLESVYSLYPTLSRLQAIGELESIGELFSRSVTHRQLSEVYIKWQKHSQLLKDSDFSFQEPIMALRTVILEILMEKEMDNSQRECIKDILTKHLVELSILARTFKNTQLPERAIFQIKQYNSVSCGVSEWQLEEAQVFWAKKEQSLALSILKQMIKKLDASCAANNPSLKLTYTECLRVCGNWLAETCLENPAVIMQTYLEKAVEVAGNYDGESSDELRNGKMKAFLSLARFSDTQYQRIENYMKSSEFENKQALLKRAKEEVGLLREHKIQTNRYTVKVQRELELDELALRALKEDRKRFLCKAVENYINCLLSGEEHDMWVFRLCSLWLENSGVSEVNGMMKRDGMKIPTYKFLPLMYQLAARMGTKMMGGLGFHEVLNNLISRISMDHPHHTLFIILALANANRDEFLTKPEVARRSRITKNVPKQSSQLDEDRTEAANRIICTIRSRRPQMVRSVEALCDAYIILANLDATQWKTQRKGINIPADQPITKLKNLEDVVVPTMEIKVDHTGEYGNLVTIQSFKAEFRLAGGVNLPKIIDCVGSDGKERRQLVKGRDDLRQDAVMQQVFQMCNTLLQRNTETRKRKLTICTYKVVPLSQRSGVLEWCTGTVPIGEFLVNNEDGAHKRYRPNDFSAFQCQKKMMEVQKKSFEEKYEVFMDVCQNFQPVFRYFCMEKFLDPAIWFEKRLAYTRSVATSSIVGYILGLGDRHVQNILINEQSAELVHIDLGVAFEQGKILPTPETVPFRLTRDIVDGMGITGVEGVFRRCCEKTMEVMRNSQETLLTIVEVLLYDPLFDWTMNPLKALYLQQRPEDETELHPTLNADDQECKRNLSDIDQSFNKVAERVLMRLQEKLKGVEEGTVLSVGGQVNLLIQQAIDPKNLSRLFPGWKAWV

SMILES	IC50 [nM]
O=c1cc(N2CCOCC2)cc(-c2cccc3c2Oc2ccc(NC4CCN(CC5CCCCC5)CC4)cc2C3)[nH]1 [Example 2-28-35, 6-(7-((1-(Cyclohexylmethyl)piperidin-4-yl)amino)-9H-xanthen-4-yl)-4-morpholino pyridin-2(1H)-one]	100 to 500
CCC(Nc1ccc2c(c1)Sc1cccc(-c3cc(N4CCOCC4)cc(=O)[nH]3)c1S2)[C@@H](N)CC (stereo partly drawn) [Example 1-20-6, 6-(7-(((4S)-4-Aminohexan-3-yl)amino)thianthren-1-yl)-4-morpholino pyridin-2(1H)-one]	100 to 500
COCCCN1CCC(Nc2ccc3c(c2)Cc2cccc(-c4cc(N5CCOCC5)cc(=O)[nH]4)c2O3)CC1 [Example 2-30-15, 6-(7-((1-(3-Methoxypropyl)piperidin-4-yl)amino)-9H-xanthen-4-yl)-4-morpholino pyridin-2 (1H)-one]	500 to 2000
COCC(=O)N1CCC(Nc2ccc3c(c2)Sc2cccc(-c4cc(N5CCOCC5)cc(=O)[nH]4)c2S3)CC1 [Example 1-28, 6-(7-((1-(2-methoxyacetyl)piperidin-4-yl)amino)thianthren-1-yl)-4-morpholinopyridin-2(1H)-one]	500 to 2000
CCC(C(=O)Nc1ccc2c(c1)Sc1cccc(-c3cc(N4CCOCC4)cc(=O)[nH]3)c1S2)N1CCCC1 (stereo not drawn) [Example 1-6-1, N-(6-(4-morpholino-6-oxo-1,6-dihydropyridin-2-yl)thianthren-2-yl)-2-(pyrrolidin-1-yl)butanamide]	100 to 500
CC(Nc1ccc2c(c1)Cc1cccc(-c3cc(N4CCOCC4)cc(=O)[nH]3)c1O2)c1nccc(CF)n1 (single isomer, unassigned) [Example 2-14-94-2, 6-(7-((1-(4-(fluoromethyl)pyrimidin-2-yl)ethyl)amino)-9H-xanthen-4-yl)-4-morpholinopyridin-2(1H)-one]	100 to 500
CC(Nc1ccc2c(c1)Sc1cccc(-c3cc(N4CCOCC4)cc(=O)[nH]3)c1S2)c1ncc(CO)cn1 (stereo not drawn) [Example 1-12-92, 6-(7-((1-(5-(Hydroxymethyl)pyrimidin-2-yl)ethyl)amino)thianthren-1-yl)-4-morpholino pyridin-2(1H)-one]	100 to 500
N#Cc1cccc(CNc2ccc3c(c2)Cc2cccc(-c4cc(N5CCOCC5)cc(=O)[nH]4)c2O3)c1 [Example 2-3-15, 3-(((5-(4-Morpholino-6-oxo-1,6-dihydropyridin-2-yl)-9H-xanthen-2-yl)amino)methyl) benzonitrile]	100 to 500
Cc1cccc(C(CN)Nc2ccc3c(c2)Cc2cccc(-c4cc(N5CCOCC5)cc(=O)[nH]4)c2O3)n1 (stereo not drawn) [Example 2-18, 6-(7-((2-Amino-1-(6-methylpyridin-2-yl)ethyl)amino)-9H-xanthen-4-yl)-4-morpholinopyridin-2(1H)-one]	100 to 500
O=c1cc(N2CCOCC2)cc(-c2cccc3c2Sc2ccc(NCCN4CCS(=O)(=O)CC4)cc2S3)[nH]1 [Example 1-16-8, 6-(7-((2-(1,1-Dioxidethiomorpholino)ethyl)amino)thianthren-1-yl)-4-morpholinopyridin-2(1H)-one]	100 to 500
CNc1ncccc1CNc1ccc2c(c1)Cc1cccc(-c3cc(N4CCOCC4)cc(=O)[nH]3)c1O2 [Example 2-2-26, 6-(7-(((2-(Methylamino)pyridin-3-yl)methyl)amino)-9H-xanthen-4-yl)-4-morpholino pyridin-2(1H)-one]	100 to 500
Cc1cnc(C(CCN2CCN(C)CC2)Nc2ccc3c(c2)Sc2cccc(-c4cc(N5CCOCC5)cc(=O)[nH]4)c2S3)cn1 (single isomer, unassigned) [Example 10-3-2, 6-(7-((3-(4-Methylpiperazin-1-yl)-1-(5-methylpyrazin-2-yl)propyl)amino)thianthren-1-yl)-4-rnorpholino pyridin-2 (1H)-one]	< 100
CN(C)c1nccc(CNc2ccc3c(c2)Sc2cccc(-c4cc(N5CCOCC5)cc(=O)[nH]4)c2S3)n1 [Example 1-12-40, 6-(7-(((2-(Dimethylamino)pyrimidin-4-yl)methyl)amino)thianthren-1-yl)-4-morpholino pyridin-2(1H)-one]	100 to 500
O=c1cc(N2CCOCC2)cc(-c2cccc3c2Sc2ccc(NCc4cncc(-n5cccc5)c4)cc2S3)[nH]1 [Example 1-12-19, 6-(7-(((5-(1H-Pyrrol-1-yl)pyridin-3-yl)methyl)amino)thianthren-1-yl)-4-morpholino pyridin-2(1H)-one]	< 100
Cc1ccc(C(CCN(C)CCO)Nc2ccc3c(c2)Sc2cccc(-c4cc(N5CCOCC5)cc(=O)[nH]4)c2S3)nc1 (single isomer, unassigned) [Example 10-4-1, 6-(7-((3-((2-Hydroxyethyl)(methyl)amino)-1-(5-methylpyridin-2-yl)propyl)amino)thianthren-1-yl)-4-morpholinopyridin-2(1H)-one]	< 100
COc1ccc(CNc2ccc3c(c2)Cc2cc(C)cc(-c4cc(N5CCOCC5)cc(=O)[nH]4)c2O3)cn1 [Example 2-49-1, 6-(7-(((6-Methoxypyridin-3-yl)methyl)amino)-2-methyl-9H-xanthen-4-yl)-4-morpholinopyridin-2(1H)-one]	500 to 2000
CC(CCN1CCCCC1)Nc1ccc2c(c1)Sc1cccc(-c3cc(N4CCOCC4)cc(=O)[nH]3)c1S2 (stereo not drawn) [Example 1-42-3, 4-Morpholino-6-(7-((4-(piperidin-1-yl)butan-2-yl)amino)thianthren-1-yl) pyridin-2(1H)-one]	100 to 500

SMILES	IC50 [nM]
Cc1ccc(C(Nc2ccc3c(c2)Sc2cccc(-c4cc(N5CCOCC5)cc(=O)[nH]4)c2S3)[C@H]2CCN(C)C2)nc1 (single isomer, unassigned) [Example 1-56-14]	< 100
COc1ccc(CNc2ccc3c(c2)Sc2cccc(-c4cc(N5CCOCC5)cc(=O)[nH]4)c2S3)cn1 [Example 1-12-16, 6-(7-(((6-Methoxypyridin-3-yl)methyl)amino)thianthren-1-yl)-4-morpholino pyridin-2 (1H)-one]	100 to 500
CC(CN(C)C1CCCCC1)Nc1ccc2c(c1)Sc1cccc(-c3cc(N4CCOCC4)cc(=O)[nH]3)c1S2 (stereo not drawn) [Example 1-13-9, 6-(7-((1-(Cyxlohexyl(methyl)amino)propan-2-yl)amino)thianthren-1-yl)-4-morpholino pyridin-2(1H)-one]	100 to 500
CC(C)(C)OC(=O)N1CCC[C@H]1CNc1ccc2c(c1)Cc1cccc(-c3cc(N4CCOCC4)cc(=O)[nH]3)c1O2 [Example 2-21-3, (S)-tert-Butyl 2-(((5-(4-morpholino-6-oxo-1,6-dihydropyridin-2-yl)-9H-xanthen-2-yl)amino)methyl) pyrrolidine-1-carboxylate]	500 to 2000
Cc1cnc(CNc2ccc3c(c2)Cc2cccc(-c4cc(N5CCOCC5)cc(=O)[nH]4)c2O3)cn1 [Example 2-14-76, 6-(7-(((5-Methylpyrazin-2-yl)methyl)amino)-9H-xanthen-4-yl)-4-morpholino pyridin-2(1H)-one]	100 to 500
CC(CN1CCCC(O)C1)Nc1ccc2c(c1)Sc1cccc(-c3cc(N4CCOCC4)cc(=O)[nH]3)c1S2 (stereo not drawn) [Example 1-13-6, 6-(7-((1-(3-Hydroxypiperidin-1-yl)propan-2-yl)amino)thianthren-1-yl)-4-morpholino pyridin-2(1H)-one]	100 to 500
COc1cc(CNc2ccc3c(c2)Cc2cccc(-c4cc(N5CCOCC5)cc(=O)[nH]4)c2O3)ccn1 [Example 2-22-1, 6-(7-(((2-methoxypyridin-4-yl)methyl)amino)-9H-xanthen-4-yl)-4-morpholinopyridin-2(1H)-one]	100 to 500
Cc1cccc(C(C)Nc2ccc3c(c2)Cc2ccnc(-c4cc(N5CCOCC5)cc(=O)[nH]4)c2O3)n1 (stereo not drawn) [Example 2-42-6, 6-(7-((1-(6-Methylpyridin-2-yl)ethyl)amino)-5H-chromeno[2,3-c]pyridin-1-yl)-4-morpholinopyridin-2(1H)-one]	100 to 500
CC(C)(C)NCCNc1ccc2c(c1)Sc1cccc(-c3cc(N4CCOCC4)cc(=O)[nH]3)c1S2 [Example 1-10-13, 6-(7-((2-(tert-Butylamino)ethyl)amino)thianthren-1-yl)-4-morpholino pyridin-2 (1H)-one]	500 to 2000
O=c1cc(N2CCOCC2)cc(-c2cccc3c2Oc2ccc(NC4CCCN(CCc5ccccc5)C4)cc2C3)[nH]1 (stereo not drawn) [Example 2-19-3, 4-Morpholino-6-(7-((1-phenethylpiperidin-3-yl)amino)-9H-xanthen-4-yl)pyridin-2(1H)-one]	500 to 2000
O=c1cc(N2CCOCC2)cc(-c2cccc3c2Oc2ccc(NCc4cncc(C5CC5)c4)cc2S3)[nH]1 [Example 4-8-7, 6-(8-(((5-Cyclopropylpyridin-3-yl)methyl)amino)phenoxathiin-4-yl)-4-morpholino pyridin-2(1H)-one]	100 to 500
O=c1cc(N2CCOCC2)cc(-c2cc(F)cc3c2Oc2ccc(NCc4cccc(Cl)n4)cc2C3)[nH]1 [Example 2-48-2, 6-(7-(((6-Chloropyridin-2-yl)methyl)amino)-2-fluoro-9H-xanthen-4-yl)-4-morpholinopyridin-2(1H)-one]	100 to 500
O=c1cc(N2CCOCC2)cc(-c2cccc3c2Oc2ccc(NCc4ccco4)cc2C3)[nH]1 [Example 2-14-33, 6-(7-((Furan-2-ylmethyl)amino)-9H-xanthen-4-yl)-4-morpholino pyridin-2(1H)-one]	100 to 500
CCC(C)C(Nc1ccc2c(c1)Sc1cccc(-c3cc(N4CCOCC4)cc(=O)[nH]3)c1S2)c1ccc(C)cn1 (stereo not drawn) [Example 1-12-122, 6-(7-((2-Methyl-1-(5-methylpyridin-2-yl)butyl)amino)thianthren-1-yl)-4-morpholino pyridin-2(1H)-one]	100 to 500
COCC(CN1CCN(C)CC1)Nc1ccc2c(c1)Sc1cccc(-c3cc(N4CCOCC4)cc(=O)[nH]3)c1S2 (stereo not drawn) [Example 1-17-3, 6-(7-((1-Methoxy-3-(4-methylpiperazin-1-yl)propan-2-yl)amino)thianthren-1-yl)-4-morpholinopyridin-2(1H)-one]	100 to 500
CCN(CC)CCNc1ccc2c(c1)Cc1cccc(-c3cc(N4CCOCC4)cc(=O)[nH]3)c1S2 [Example 3-4-4, 6-(7-((2-(Diethylamino)ethyl)amino)-9H-thioxanthen-4-yl)-4-morpholino pyridin-2(1H)-one]	500 to 2000

— patent US9586951B2 (FUJIFILM Corporation, priority 2013, dated 2017)
